Results reported in PMC5608272 (PLoS ONE, 2017).
Where two headings read alike, the source gives them in different places.

Assays:
Human cGAS (aa 2–522) = molecular target: T1, Human cGAS (aa 2–522) (Homo sapiens, UniProt Q8N884); assay: cGAS activity mass spectrometry assay (cGAMP production by LC-MS); type: biochemical; details: for effect of metals on cGAS activity: 1 nM cGAS, 1 nM dsDNA, in words; for Km: other nucleotide fixed: ATP 1 mM, GTP 300 μM, read-out: apparent Km
T1 construct: Amino acids 2-522 of human MB21D1 (Uniprot ID: Q8N884); made in house; host or cells: Spodoptera frugiperda Sf-9 (baculovirus)
Description: cGAS activity was measured in buffer (10 mM Hepes, 140 mM NaCl, 0.01% Tween-20, 5 mM MgCl2, pH 7.5) containing 1 mM ATP, 0.3 mM GTP, 100 nM ISD DNA (45 bp dsDNA), and 100 nM cGAS in the presence or absence of test compounds. […] The reaction was incubated for 30 minutes at 37°C and stopped with the addition of 50 mM EDTA. […] An earlier version of the assay utilized the same buffer and nucleotide conditions but was conducted in the presence of 1 nM cGAS, 1 nM ISD DNA and carried out for 6 h at 37°C before being processed as described above.
50 μl of H2O was added to each 25 μl cGAS reaction (384 well format). The samples were mixed by briefly vortexing followed by a 10 min, 3000 g centrifugation at room temperature. […] 10 μl of sample was injected on to a 2x30 mm hypercarb column (Thermo Scientific) kept at 60°C with a flow rate of 0.8 ml/min and a loop sweep time of 20 s. Mobile phase A consisted of 10 mM Ammonium Acetate, pH 10, and Mobile phase B consisted of 90:10 (Acetonitrile:Acetone 1:1): 10 mM Ammonium Acetate pH 10 + 0.1% formic acid. […] ATP and GTP had the following optimized parameters: dp 99 ep 10 ce 64 cxp 10. […] The data was processed using Sciex's Multiquant 3.0.

cGAS [1] = molecular target: T2, cGAS (Homo sapiens, UniProt Q8N884); assay: SPR binding to immobilized cGAS; details: for Kd: absence of activating dsDNA, 4 °C
Description: SPR assays. SPR experiments were performed using NTA sensor chips in a BIACORE T200 (GE Healthcare). cGAS was immobilized to a final density ca 5000-10000 RU. Sample-dependent responses were subtracted from channel 1, which had neither Ni or protein immobilized on it. Data were further corrected by subtracting a zero-concentratio blank from all compounds. Compounds were injected for 30-60 s, dissociation was measured for 30-120 s at 60 μL/min, 4 °C. Experiments were performed in buffer contained 20 mM HEPES (pH 7.5), 150 mM KCl, 20 mM MgCl2, 1 mM TCEP and 1% DMSO. Samples were injected with a top concentration, followed by 2-fold dilutions, and a final blank over 12 injection points. […] Dissociation equilibrium constants (KD) were determined using a binary association model (T200 BIA Eval software).
Target sequence in this assay (Q8N884 whole entry): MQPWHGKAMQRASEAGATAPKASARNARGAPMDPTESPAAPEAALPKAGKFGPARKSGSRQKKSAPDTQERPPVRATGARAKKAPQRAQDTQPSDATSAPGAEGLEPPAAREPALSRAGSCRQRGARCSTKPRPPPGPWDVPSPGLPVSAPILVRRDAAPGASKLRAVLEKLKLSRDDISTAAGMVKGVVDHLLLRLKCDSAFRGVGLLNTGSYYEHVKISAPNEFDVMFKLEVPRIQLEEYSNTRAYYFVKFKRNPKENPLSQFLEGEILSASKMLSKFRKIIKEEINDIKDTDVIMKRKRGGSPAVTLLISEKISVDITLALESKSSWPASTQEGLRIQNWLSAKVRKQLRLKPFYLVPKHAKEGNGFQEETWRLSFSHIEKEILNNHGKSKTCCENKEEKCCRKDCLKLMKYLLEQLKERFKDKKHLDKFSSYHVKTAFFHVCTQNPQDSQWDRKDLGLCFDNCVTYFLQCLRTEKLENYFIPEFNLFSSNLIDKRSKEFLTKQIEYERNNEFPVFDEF

cGAS [2] = molecular target: T2, cGAS; assay: Cy5-cGAMP fluorescence polarization assay of cGAS activity; type: biochemical; parameters: Amino acids 2-522 of human MB21D1 (Uniprot ID: Q8N884); made in house; host or cells: Spodoptera frugiperda Sf-9 (baculovirus)
Target sequence in this assay (Q8N884 2-522): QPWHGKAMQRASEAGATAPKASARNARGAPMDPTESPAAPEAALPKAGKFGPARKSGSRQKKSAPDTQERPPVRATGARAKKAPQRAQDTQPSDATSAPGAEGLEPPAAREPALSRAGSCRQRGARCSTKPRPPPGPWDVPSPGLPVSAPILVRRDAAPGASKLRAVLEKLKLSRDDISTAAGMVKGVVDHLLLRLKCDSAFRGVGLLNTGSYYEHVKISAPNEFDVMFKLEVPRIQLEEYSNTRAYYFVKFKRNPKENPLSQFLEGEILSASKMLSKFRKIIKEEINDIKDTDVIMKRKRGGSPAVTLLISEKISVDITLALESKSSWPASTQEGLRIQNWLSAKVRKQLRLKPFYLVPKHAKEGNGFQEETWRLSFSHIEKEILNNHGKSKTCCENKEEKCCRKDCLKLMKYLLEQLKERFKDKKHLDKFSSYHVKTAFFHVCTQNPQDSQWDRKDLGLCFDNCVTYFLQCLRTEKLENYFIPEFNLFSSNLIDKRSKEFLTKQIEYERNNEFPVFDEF

[3] = system: dsDNA-induced IFN-beta expression; assay: Cellular cGAS assay: dsDNA-induced IFN-beta expression via luciferase reporter in THP-1 Dual cells; type: cell-based, human
Description: (§1) Cellular Assays. THP-1 Dual monocytes cells containing NF-κB-SEAP and IRF-Luc Reporter (InvivoGen cat # thpd-nfis) were plated at 1x10^5 cells/well in U bottom 96 well plates in 100μL RPMI media containing10% FBS. Tested compounds were diluted in 100% DMSO to stock concentration of 30 mM. The TBK1 inhibitor BX-795 was obtained from Sigma-Aldrich (cat#SML0694-5MG) and used as a positive control. Cells were pretreated with DMSO or compounds for 1 hr at room temperature, followed by Lipofectamine™ 2000 (Thermo Fisher cat# 11668027) transfection with salmon sperm DNA (InvivoGen cat# tlrl-sdef) at 100 ng/well. Cells were incubated for 12 hrs at 37 ^◦C in a 5% CO2 incubator followed by centrifugation at 1000 rpm for 5 min. Media was collected and Lucia luciferase was measured using Quanti-Luc substrate (InvivoGen cat# rep-qlc1) according to the manufacturer’s protocol. Viability of cells was assessed using Promega CellTiter Glo luminescent viability assay (Promega cat# G7570) according to the manufacturer’s protocol. All data points were normalized to the salmon sperm DNA-treated wells (without compound) and expressed as percent of signal.

truncated h-cGAS = molecular target: T3, truncated h-cGAS (Homo sapiens, UniProt Q8N884); assay: STD 1H NMR cGAMP competition binding on truncated h-cGAS; details: mixture with 2´,3´-cGAMP, in words
T3 construct: a previously crystalized cGAS construct beginning at residue 161 (cGAS161) (H. sapiens numbering)
Description: Nuclear Magnetic Resonance (NMR). All NMR spectra were collected on a Bruker Avance III series 600 MHz spectrometer equipped with a 1.7 mm micro cryoprobe. For fragment screening, the Pfizer fragment library (~3,200 fragments) was screened against 3 μM truncated h-cGAS in 20 mM hepes (pH 7.5) buffer containing 150 mM KCl and 1 mM TCEP, and no DNA. The concentration of each fragment was 300 µM, and each sample contains either five or ten fragments in the mixture. Saturation transfer difference (STD) spectra for each fragment mixture were collected and binders were identified by comparing their STD signals with 1D reference spectra of the fragments in the mixture.

[4] = Chemical stability observed on resynthesis; type: physicochemical; details: upon attempted resynthesis, in words
mAb 80–2 = assay: Competition ELISA, mAb 80–2 binding to BSA-cGAMP; parameters: species or system mouse; details: preincubated 1 hr; ATP, GTP at mM concentrations; in words
Description: After washing, plates were developed with substrate, the reaction was stopped with 2 N H2SO4 and OD was read at 450 nm. […] After incubation for 1 hr, plates were washed, incubated with secondary antibody, and developed as described above.

THP-1 Dual cells = assay: Cell viability, CellTiter Glo, THP-1 Dual cells; type: cell-based, human; details: in words
Description: as §1

[5] = 1 mM ATP, 0.3 mM GTP, 100 nM ISD DNA, 100 nM cGAS, read-out: MS IC50
[6] = 1 mM ATP, 0.3 mM GTP, 100 nM ISD DNA, 100 nM cGAS, read-out: FP IC50

T1 sequence (Q8N884 2-522): as above
T3 sequence (Q8N884 161-522 limits assumed): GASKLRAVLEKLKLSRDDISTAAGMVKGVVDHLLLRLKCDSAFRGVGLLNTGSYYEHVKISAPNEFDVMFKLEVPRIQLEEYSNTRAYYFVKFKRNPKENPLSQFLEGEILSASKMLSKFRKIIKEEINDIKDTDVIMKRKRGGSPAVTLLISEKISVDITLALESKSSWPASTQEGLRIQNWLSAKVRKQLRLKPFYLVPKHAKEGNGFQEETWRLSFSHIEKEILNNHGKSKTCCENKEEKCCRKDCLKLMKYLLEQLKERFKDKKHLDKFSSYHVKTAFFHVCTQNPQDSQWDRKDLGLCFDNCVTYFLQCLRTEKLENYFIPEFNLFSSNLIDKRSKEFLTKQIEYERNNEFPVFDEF

Structure (SMILES): [Cl-].[Cl-].[Zn+2] [zinc, ZnCl2]
- effect of metals on cGAS activity (Human cGAS (aa 2–522)): increased enzymatic activity

Structure (SMILES): CNC(=O)c1cnn2c(=O)cc(-c3ccccc3)[nH]c12 [Compound 16, N-methyl-7-oxo-5-phenyl-4,7-dihydropyrazolo[1,5-a]pyrimidine-3-carboxamide]
- Kd (cGAS [1]): 78 µM
- IC50 (Human cGAS (aa 2–522); [5]): 69 µM
- IC50 (cGAS [2]; [6]): 125 µM
- IC50 (cGAS [2]; text summary of Fig 3, spans MS and FP assay values, read-out: IC50, inhibition of cGAS functional activity): 69 to 125 µM

Structure (SMILES): O=C(NCCO)c1cnn2c(=O)cc(-c3ccccc3)[nH]c12 [Compound 17, N-(2-hydroxyethyl)-7-oxo-5-phenyl-4,7-dihydropyrazolo[1,5-a]pyrimidine-3-carboxamide]
- Kd (cGAS [1]): 12.5 µM
- IC50 (Human cGAS (aa 2–522); [5]): 19 µM
- IC50 (cGAS [2]; [6]): 15.1 µM

Structure (SMILES): O=C(NCCCNc1nc(Nc2cccc(NC(=O)N3CCCC3)c2)ncc1I)c1cccs1 [BX-395, reference compound]
- IC50 ([3]; Homo sapiens, THP1-Dual, positive control, read-out: IC50, inhibition of IFN-β induction): ~0.06 µM

Structure (SMILES): Oc1cc(-c2ccccc2)nc2nnnn12 [Compound 15]
- competition with 2´,3´-cGAMP for interacting with cGAS (1H STD) (truncated h-cGAS): out competed 2´,3´-cGAMP
- chemical stability [4]: not chemically stable and readily isomerizes via an open-ring azidopyrimidine
- Kd (cGAS [1]): 171 µM

Structure (SMILES): Nc1nc2c(ncn2[C@@H]2O[C@H](COP(=O)(O)OP(=O)(O)OP(=O)(O)O)[C@@H](O)[C@H]2O)c(=O)[nH]1 [GTP]
- inhibition of mAb 80–2 binding to BSA-cGAMP (mAb 80–2): neither ATP nor GTP at mM concentrations inhibited the binding
- Km (Human cGAS (aa 2–522)): 30 µM

Structure (SMILES): [Cu][Br] [copper, CuBr]
- effect of metals on cGAS activity (Human cGAS (aa 2–522)): very sensitive to inhibition

Structure (SMILES): Nc1ncnc2c1ncn2[C@@H]1O[C@H](COP(=O)(O)OP(=O)(O)OP(=O)(O)O)[C@@H](O)[C@H]1O [ATP]
- inhibition of mAb 80–2 binding to BSA-cGAMP (mAb 80–2): neither ATP nor GTP at mM concentrations inhibited the binding
- Km (Human cGAS (aa 2–522)): 35 µM

Structure (SMILES): O=C(N[C@H]1CCCC[C@H]1C(=O)O)c1cnn2c(=O)cc(-c3ccccc3)[nH]c12 [PF-06928215, (1R,2S)-2-(7-oxo-5-phenyl-4,7-dihydropyrazolo[1,5-a]pyrimidine-3 carboxamido) cyclohexane-1-carboxylic acid]
- effect on cell viability (THP-1 Dual cells): minimal effect on cell viability
- activity on dsDNA-induced IFN-beta expression ([3]; salmon sperm DNA 12 hrs, in words): no activity
- off rate kinetics (cGAS [1]; SPR sensorgram, in words): longer off rate kinetics than any other compound in this series

Structure (SMILES): C[C@@H](CO)NC(=O)c1cnn2c(=O)cc(-c3ccccc3)[nH]c12 [Compound 19, (S)-N-(1-hydroxypropan-2-yl)-7-oxo-5-phenyl-4,7-dihydropyrazolo[1,5-a]pyrimidine-3-carboxamide]
- Kd (cGAS [1]): 2.7 µM
- IC50 (Human cGAS (aa 2–522); [5]): 8.1 µM
- IC50 (cGAS [2]; [6]): 17.5 µM

Structure (SMILES): O=C(O)CNC(=O)c1cnn2c(=O)cc(-c3ccccc3)[nH]c12 [Compound 18, (7-oxo-5-phenyl-4,7-dihydropyrazolo[1,5-a]pyrimidine-3-carbonyl)glycine]
- Kd (cGAS [1]): 6.7 µM
- IC50 (Human cGAS (aa 2–522)): 21 µM
- IC50 (cGAS [2]): 10.6 µM

Structure (SMILES): CC(=O)[O-].CC(=O)[O-].[Pd+2] [palladium, Pd(OAc)2]
- effect of metals on cGAS activity (Human cGAS (aa 2–522)): very sensitive to inhibition
